Assay results: patent US20070281992A1, “COMBINATION OF GYRASE B INHIBITORS AND PROTEIN SYNTHESIS INHIBITORS AND USES THEREOF” (priority 2006, published 2007)
Where two headings read alike, the source gives them in different places.

Key:
Format in all cases: cell-based
[1] = system: Methicillin-Susceptible Staphylococcus aureus Isolates; experiment: MIC assay (NCCLS broth dilution), MSSA clinical isolates; conditions: for MIC: read-out: Minimal Inhibitory Concentration
Procedure, shortened: (§1)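 Broth microdilution MIC run per NCCLS M7-A6 guidelines in Mueller Hinton II broth, over 11 two-fold serial dilutions of test agent. Novobiocin/tetracycline and novobiocin/minocycline combinations were tested at a 2.5:1 ratio to mimic serum levels; vancomycin served as control agent.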

[2] = system: Methicillin-Resistant Staphylococcus aureus Isolates; experiment: MIC assay (NCCLS broth dilution), MRSA clinical isolates; conditions: for MIC: read-out: Minimal Inhibitory Concentration
Procedure, shortened: as §1

[3] = system: Vancomycin-intermediate Staphylococcus epidermidis Isolates; experiment: MIC assay (NCCLS broth dilution), VISE isolates; conditions: for MIC: read-out: Minimal Inhibitory Concentration
Procedure, shortened: as §1

[4] = system: Unconfirmed Vancomycin-intermediate Staphylococcus epidermidis Isolates; experiment: MIC assay (NCCLS broth dilution), unconfirmed VISE isolates; conditions: for MIC: read-out: Minimal Inhibitory Concentration
Procedure, shortened: as §1

[5] = system: Linezolid-Resistant Staphylococcus aureus Isolates; experiment: MIC assay (NCCLS broth dilution), LRSA isolates; conditions: Staphylococcus aureus; for MIC: read-out: Minimal Inhibitory Concentration
Procedure, shortened: as §1

[6] = Staphylococcus aureus, 52 MSSA isolates, combinations at 2.5:1, given as NB/partner
[7] = Staphylococcus aureus, 52 MRSA isolates, combinations at 2.5:1, given as NB/partner

## CC(=O)NC[C@H]1CN(c2ccc(N3CCOCC3)c(F)c2)C(=O)O1 [LZD, linezolid]
[1]; 52 MSSA isolates, Mueller Hinton II Broth, combinations at 2.5:1, given as NB/partner
  MIC Range: 1 to 4 µg/mL
[1]; Staphylococcus aureus, MSSA isolate 133, 03MAR06
  MIC: 2 µg/mL
[1]; Staphylococcus aureus, MSSA isolate 134, 03MAR06
  MIC: 2 µg/mL
[1]; Staphylococcus aureus, MSSA isolate 135, 03MAR06
  MIC: 4 µg/mL
[1]; Staphylococcus aureus, MSSA isolate 753, 22FEB06
  MIC: 2 µg/mL
[1]; Staphylococcus aureus, MSSA isolate 754, 22FEB06
  MIC: 4 µg/mL
[1]; Staphylococcus aureus, MSSA isolate 754, 24FEB06
  MIC: 4 µg/mL
[1]; Staphylococcus aureus, MSSA isolate 755, 22FEB06
  MIC: 2 µg/mL
[1]; Staphylococcus aureus, MSSA isolate 756, 03MAR06
  MIC: 2 µg/mL
[1]; Staphylococcus aureus, MSSA isolate 779, 22FEB06
  MIC: 2 µg/mL
[1]; Staphylococcus aureus, MSSA isolate 780, 03MAR06
  MIC: 4 µg/mL
[1]; Staphylococcus aureus, MSSA isolate 781, 03MAR06
  MIC: 2 µg/mL
[1]; Staphylococcus aureus, MSSA isolate 782, 22FEB06
  MIC: 2 µg/mL
[1]; Staphylococcus aureus, MSSA isolate 783, 22FEB06
  MIC: 2 µg/mL
[1]; Staphylococcus aureus, MSSA isolate 784, 22FEB06
  MIC: 2 µg/mL
[1]; Staphylococcus aureus, MSSA isolate 785, 22FEB06
  MIC: 2 µg/mL
[1]; Staphylococcus aureus, MSSA isolate 786, 22FEB06
  MIC: 4 µg/mL
[1]; Staphylococcus aureus, MSSA isolate 787, 22FEB06
  MIC: 2 µg/mL
[1]; Staphylococcus aureus, MSSA isolate 788, 22FEB06
  MIC: 2 µg/mL
[1]; Staphylococcus aureus, MSSA isolate 789, 24FEB06
  MIC: 4 µg/mL
[1]; Staphylococcus aureus, MSSA isolate 790, 24FEB06
  MIC: 4 µg/mL
[1]; Staphylococcus aureus, MSSA isolate 791, 24FEB06
  MIC: 2 µg/mL
[1]; Staphylococcus aureus, MSSA isolate 792, 03MAR06
  MIC: 2 µg/mL
[1]; Staphylococcus aureus, MSSA isolate 793, 24FEB06
  MIC: 4 µg/mL
[1]; Staphylococcus aureus, MSSA isolate 794, 24FEB06
  MIC: 4 µg/mL
[1]; Staphylococcus aureus, MSSA isolate 994, 22FEB06
  MIC: 2 µg/mL
[1]; Staphylococcus aureus, MSSA isolate 995, 03MAR06
  MIC: 2 µg/mL
[1]; Staphylococcus aureus, MSSA isolate 996, 22FEB06
  MIC: 2 µg/mL
[1]; Staphylococcus aureus, MSSA isolate 997, 22FEB06
  MIC: 2 µg/mL
[1]; Staphylococcus aureus, MSSA isolate 998, 03MAR06
  MIC: 2 µg/mL
[1]; Staphylococcus aureus, MSSA isolate 999, 22FEB06
  MIC: 2 µg/mL
[1]; Staphylococcus aureus, MSSA isolate 1000, 24FEB06
  MIC: 2 µg/mL
[1]; Staphylococcus aureus, MSSA isolate 1001, 24FEB06
  MIC: 2 µg/mL
[1]; Staphylococcus aureus, MSSA isolate 1002, 24FEB06
  MIC: 2 µg/mL
[1]; Staphylococcus aureus, MSSA isolate 1003, 03MAR06
  MIC: 2 µg/mL
[1]; Staphylococcus aureus, MSSA isolate 1005, 24FEB06
  MIC: 2 µg/mL
[1]; Staphylococcus aureus, MSSA isolate 1006, 24FEB06
  MIC: 2 µg/mL
[1]; Staphylococcus aureus, MSSA isolate 1007, 24FEB06
  MIC: 4 µg/mL
[1]; Staphylococcus aureus, MSSA isolate 1008, 24FEB06
  MIC: 2 µg/mL
[1]; Staphylococcus aureus, MSSA isolate 1009, 24FEB06
  MIC: 4 µg/mL
[1]; Staphylococcus aureus, MSSA isolate 1131, 24FEB06
  MIC: 2 µg/mL
[1]; Staphylococcus aureus, MSSA isolate 1132, 03MAR06
  MIC: 2 µg/mL
[1]; Staphylococcus aureus, MSSA isolate 1133, 24FEB06
  MIC: 2 µg/mL
[1]; Staphylococcus aureus, MSSA isolate 1134, 24FEB06
  MIC: 2 µg/mL
[1]; Staphylococcus aureus, MSSA isolate 1654, 03MAR06
  MIC: 2 µg/mL
[1]; Staphylococcus aureus, MSSA isolate 1656, 03MAR06
  MIC: 2 µg/mL
[1]; Staphylococcus aureus, MSSA isolate 1662, 03MAR06
  MIC: 2 µg/mL
[1]; Staphylococcus aureus, MSSA isolate 1663, 03MAR06
  MIC: 4 µg/mL
[1]; Staphylococcus aureus, MSSA isolate 1666, 03MAR06
  MIC: 4 µg/mL
[1]; Staphylococcus aureus, MSSA isolate 1667, 03MAR06
  MIC: 4 µg/mL
[1]; Staphylococcus aureus, MSSA isolate 1668, 03MAR06
  MIC: 4 µg/mL
[1]; Staphylococcus aureus, MSSA isolate 1671, 03MAR06
  MIC: 2 µg/mL
[1]; Staphylococcus aureus, MSSA isolate 1728, 03MAR06
  MIC: 1 µg/mL
[1]; Staphylococcus aureus, MSSA isolate 1728, retest 09MAR06
  MIC: 1 µg/mL
[1]; [6]
  MIC50: 2 µg/mL
  MIC90: 4 µg/mL
[2]; 52 MRSA isolates, combinations at 2.5:1, given as NB/partner
  MIC Range: 2 to 4 µg/mL
[2]; Staphylococcus aureus, MRSA isolate 757, 24FEB06
  MIC: 4 µg/mL
[2]; Staphylococcus aureus, MRSA isolate 758, 03MAR06
  MIC: 4 µg/mL
[2]; Staphylococcus aureus, MRSA isolate 758, 24FEB06
  MIC: 4 µg/mL
[2]; Staphylococcus aureus, MRSA isolate 760, 03MAR06
  MIC: 2 µg/mL
[2]; Staphylococcus aureus, MRSA isolate 760, 24FEB06
  MIC: 4 µg/mL
[2]; Staphylococcus aureus, MRSA isolate 763, 22FEB06
  MIC: 4 µg/mL
[2]; Staphylococcus aureus, MRSA isolate 765, 22FEB06
  MIC: 4 µg/mL
[2]; Staphylococcus aureus, MRSA isolate 766, 22FEB06
  MIC: 4 µg/mL
[2]; Staphylococcus aureus, MRSA isolate 767, 22FEB06
  MIC: 2 µg/mL
[2]; Staphylococcus aureus, MRSA isolate 768, 22FEB06
  MIC: 2 µg/mL
[2]; Staphylococcus aureus, MRSA isolate 769, 22FEB06
  MIC: 2 µg/mL
[2]; Staphylococcus aureus, MRSA isolate 770, 22FEB06
  MIC: 2 µg/mL
[2]; Staphylococcus aureus, MRSA isolate 771, 22FEB06
  MIC: 2 µg/mL
[2]; Staphylococcus aureus, MRSA isolate 772, 22FEB06
  MIC: 2 µg/mL
[2]; Staphylococcus aureus, MRSA isolate 773, 24FEB06
  MIC: 2 µg/mL
[2]; Staphylococcus aureus, MRSA isolate 774, 24FEB06
  MIC: 2 µg/mL
[2]; Staphylococcus aureus, MRSA isolate 775, 24FEB06
  MIC: 4 µg/mL
[2]; Staphylococcus aureus, MRSA isolate 776, 24FEB06
  MIC: 2 µg/mL
[2]; Staphylococcus aureus, MRSA isolate 777, 24FEB06
  MIC: 2 µg/mL
[2]; Staphylococcus aureus, MRSA isolate 778, 24FEB06
  MIC: 2 µg/mL
[2]; Staphylococcus aureus, MRSA isolate 886, 24FEB06
  MIC: 2 µg/mL
[2]; Staphylococcus aureus, MRSA isolate 887, 24FEB06
  MIC: 4 µg/mL
[2]; Staphylococcus aureus, MRSA isolate 888, 24FEB06
  MIC: 4 µg/mL
[2]; Staphylococcus aureus, MRSA isolate 889, 24FEB06
  MIC: 4 µg/mL
[2]; Staphylococcus aureus, MRSA isolate 1004, 24FEB06
  MIC: 4 µg/mL
[2]; Staphylococcus aureus, MRSA isolate 1010, 22FEB06
  MIC: 2 µg/mL
[2]; Staphylococcus aureus, MRSA isolate 1012, 22FEB06
  MIC: 2 µg/mL
[2]; Staphylococcus aureus, MRSA isolate 1013, 22FEB06
  MIC: 2 µg/mL
[2]; Staphylococcus aureus, MRSA isolate 1014, 22FEB06
  MIC: 2 µg/mL
[2]; Staphylococcus aureus, MRSA isolate 1015, 22FEB06
  MIC: 2 µg/mL
[2]; Staphylococcus aureus, MRSA isolate 1016, 22FEB06
  MIC: 2 µg/mL
[2]; Staphylococcus aureus, MRSA isolate 1017, 22FEB06
  MIC: 2 µg/mL
[2]; Staphylococcus aureus, MRSA isolate 1021, 22FEB06
  MIC: 2 µg/mL
[2]; Staphylococcus aureus, MRSA isolate 1022, 22FEB06
  MIC: 2 µg/mL
[2]; Staphylococcus aureus, MRSA isolate 1023, 22FEB06
  MIC: 2 µg/mL
[2]; Staphylococcus aureus, MRSA isolate 1024, 22FEB06
  MIC: 2 µg/mL
[2]; Staphylococcus aureus, MRSA isolate 1025, 22FEB06
  MIC: 2 µg/mL
[2]; Staphylococcus aureus, MRSA isolate 1135, 22FEB06
  MIC: 2 µg/mL
[2]; Staphylococcus aureus, MRSA isolate 1136, 22FEB06
  MIC: 4 µg/mL
[2]; Staphylococcus aureus, MRSA isolate 1137, 22FEB06
  MIC: 2 µg/mL
[2]; Staphylococcus aureus, MRSA isolate 1138, 22FEB06
  MIC: 4 µg/mL
[2]; Staphylococcus aureus, MRSA isolate 1222, 03MAR06
  MIC: 2 µg/mL
[2]; Staphylococcus aureus, MRSA isolate 1222, 24FEB06
  MIC: 2 µg/mL
[2]; Staphylococcus aureus, MRSA isolate 1653, 03MAR06
  MIC: 2 µg/mL
[2]; Staphylococcus aureus, MRSA isolate 1658, 03MAR06
  MIC: 2 µg/mL
[2]; Staphylococcus aureus, MRSA isolate 1659, 03MAR06
  MIC: 2 µg/mL
[2]; Staphylococcus aureus, MRSA isolate 1661, 03MAR06
  MIC: 4 µg/mL
[2]; Staphylococcus aureus, MRSA isolate 1729, 03MAR06
  MIC: 2 µg/mL
[2]; Staphylococcus aureus, MRSA isolate 1730, 24FEB06
  MIC: 4 µg/mL
[2]; Staphylococcus aureus, MRSA isolate 2009, 24FEB06
  MIC: 2 µg/mL
[2]; Staphylococcus aureus, MRSA isolate 2010, 24FEB06
  MIC: 2 µg/mL
[2]; Staphylococcus aureus, MRSA isolate 2011, 24FEB06
  MIC: 4 µg/mL
[2]; [7]
  MIC50: 2 µg/mL
  MIC90: 4 µg/mL
[3]; 4 VISE isolates, combinations at 2.5:1
  MIC Range: 1 to 2 µg/mL
[3]; Staphylococcus epidermidis, VISE isolate 2020, 09MAR06
  MIC: 2 µg/mL
[3]; Staphylococcus epidermidis, VISE isolate 2021, 09MAR06
  MIC: 1 µg/mL
[3]; Staphylococcus epidermidis, VISE isolate 2022, 03MAR06
  MIC: 2 µg/mL
[3]; Staphylococcus epidermidis, VISE isolate 2023, 03MAR06
  MIC: 2 µg/mL
[3]; Staphylococcus epidermidis, 4 VISE isolates, combinations at 2.5:1
  MIC50: 2 µg/mL
[4]; 3 unconfirmed VISE isolates, combinations at 2.5:1
  MIC Range: 1 to 2 µg/mL
[4]; Staphylococcus epidermidis, Unconfirmed VISE isolate 2024, 09MAR06
  MIC: 1 µg/mL
[4]; Staphylococcus epidermidis, Unconfirmed VISE isolate 2025, 09MAR06
  MIC: 1 µg/mL
[4]; Staphylococcus epidermidis, Unconfirmed VISE isolate 2026, 03MAR06
  MIC: 2 µg/mL
[4]; Staphylococcus epidermidis, 3 unconfirmed VISE isolates, combinations at 2.5:1
  MIC50: 1 µg/mL
[5]; LRSA isolate 1651, 24FEB06
  MIC: 16 µg/mL
[5]; LRSA isolate 1652, 24FEB06
  MIC: 32 µg/mL
[5]; LRSA isolate 1725, 24FEB06
  MIC: 32 µg/mL
[5]; 3 LRSA isolates, combinations at 2.5:1
  MIC50: 32 µg/mL
